Source: patent US9630941B2 (priority 2008, dated 2017)

Experiments:
[1] = Porcine buccal tissue homogenate stability; assay type: in vitro ADME; settings: protein concentration 2 mg/ml
Method: (§1) b. Porcine Buccal Tissue Homogenate Stability
(§2) Protein Concentration 2 mg/ml

[2] = Plasma THC from HME buccal patches in swine model; assay type: in vivo
Method: THC was used as control formulation. Plasma was sampled from each animal at predetermined times and the amount of THC in the plasma was determined.
FIG. 20: Plasma THC concentrations as a function of time from THC-Val-HS loaded HME buccal patches. Data represents the mean value from 4 pigs. The animals were maintained under anesthesia for the first 4 hours and were then allowed to come out of anesthesia and given access to food and water.
A dose dependent plasma concentration time profile was then evaluated.
Plasma THC concentrations as a function of time and dose from THC-Val-HS loaded HME patches. Data represents the mean value. The animals for maintained under anesthesia for the first 4 hours and were then allowed to come out of anesthesia and given access to food and water.

[3] = test system: intraocular pressure (IOP) induced model of glaucoma; assay: Rabbit glaucoma model, IOP lowering after topical instillation; settings: for Peak IOP drop, IOP as % of the baseline IOP: 50 μL topical
[4] = Chemical stability pH dependent at 25° C.; assay type: physicochemical
Method: B. Chemical Stability pH Dependent at 25° C.

[5] = Aqueous solubility, pH dependent; assay type: physicochemical
[6] = Control (IPBS) stability for the buccal homogenate study; assay type: physicochemical
Method: as §1, §2

[7] = Maximum amount dissolved in topical formulations; assay type: physicochemical
[8] = In vivo ocular bioavailability of THC after topical formulations
[9] = Thermal stability, 120° C. for 10 min; assay type: physicochemical
Method: C. Thermal Stability—120° C. for 10 min.

[10] = Bioreversion: plasma stability, porcine plasma; assay type: in vitro ADME
[11] = Plasma THC after rectal suppository (PEG 1000) in rat; settings: polyethylene glycol 1000 base, dose equivalent to 1 mg THC
[12] = Stability of THC-Val-HS HME transmucosal patch; settings: for Assay (as a % of theoretical amount): HME transmucosal patch
[13] = THC-Val-HS 0.25% w/v in 0.1% Cremophor RH 40 + 0.02% BAK + 0.1% EDTA + 0.5% HPMC, 1 Hour
[14] = THC-Val-HS 0.26% w/v in 2.5% HPβCD + 0.5% HPMC, 1 Hour
[15] = THC-Val-HS 0.26% w/v in 2.5% HPβCD + 0.5% HPMC, 3 Hours
[16] = THC-Val-HS 10% w/w Ocular Film, 1 Hour
[17] = THC-Val-HS 10% w/w Ocular Film, 3 Hours

CCCCCc1cc(OC(=O)C(NC(=O)CCC(=O)O)C(C)C)c2c(c1)OC(C)(C)C1CCC(C)=CC21 (stereo not drawn) [THC-Valinate-HS (15), THC-valinate-hemisuccinate]
K [1]: 2.96 ± 0.19 ×10^−3 min^−1
T1/2 [1]: 23.43 ± 1.49 min
Dose dependence of THC blood levels from HME patches ([2]; swine, 5, 10, 20 mg formulations): dose dependant
11-OH-THC or carboxy metabolite THC-COOH in plasma ([2]; swine, buccal patch): not seen
THC levels in plasma from transmucosal HME patches ([2]; swine, buccal patch, listed as THC-Val-HS): Significant plasma THC levels were observed
Peak IOP drop, IOP as % of the baseline IOP ([3]; Tocrisolve emulsion, 0.97% w/v THC-Val-HS): 53±3%
IOP-time profile compared with THC ([3]; at a lower dose): significantly better than that of THC
Duration of action (time taken for IOP to return to 90% of baseline) ([3]; both formulations): about 4 hours
time to peak IOP drop after instilling ([3]; micellar solution and Tocrisolve emulsion): ≤ 90 min
Peak IOP drop, IOP as % of the baseline IOP ([3]; micellar solution, 0.89% w/v THC-Val-HS): 62±3%
First order rate constant ([4]; Buffer pH 5.0, 25° C.): Stable
First order rate constant ([4]; Buffer pH 7.0, 25° C.): Stable
First order rate constant ([4]; Buffer pH 9.0, 25° C.): Stable
First order rate constant ([4]; Water, 25° C.): Stable
Aqueous Solubility ([5]; H20): 8.50 ± 6.00 µg/mL
Aqueous Solubility ([5]; Water): 16.54 ± 11.69 µM
Aqueous Solubility ([5]; pH 1.2): 0.06 ± 0.03 µg/mL
Aqueous Solubility ([5]; pH 1.2, listed as THC-Valine-HS): 0.12 ± 0.06 µM
Aqueous Solubility ([5]; pH 2): 0.09 ± 0.03 µg/mL
Aqueous Solubility ([5]; pH 2, listed as THC-Valine-HS): 0.17 ± 0.06 µM
Aqueous Solubility ([5]; pH 5): 0.35 ± 0.02 µg/mL
Aqueous Solubility ([5]; pH 5, listed as THC-Valine-HS): 0.67 ± 0.04 µM
Aqueous Solubility ([5]; pH 6): 12.74 ± 1.80 µg/mL
Aqueous Solubility ([5]; pH 6, listed as THC-Valine-HS): 24.80 ± 3.51 µM
Aqueous Solubility ([5]; pH 7): 155.67 ± 31.19 µg/mL
Aqueous Solubility ([5]; pH 7, listed as THC-Valine-HS): 303.06 ± 60.72 µM
Aqueous Solubility ([5]; pH 8): 117.04 ± 10.91 µg/mL
Aqueous Solubility ([5]; pH 8, listed as THC-Valine-HS): 227.86 ± 21.24 µM
Aqueous Solubility ([5]; pH 9): 0.02 ± 0.00 µg/mL
Aqueous Solubility ([5]; pH 9, listed as THC-Valine-HS): 0.05 ± 0.00 µM
K [6]: 0.40 ± 0.02 ×10^−3 min^−1
maximum amount that could be dissolved ([7]; Tocrisolve emulsion): 0.97 % w/v
maximum amount that could be dissolved ([7]; micellar solution: HPβCD 15% + Cremophor RH 40 0.25% + BAK 0.01% + EDTA 0.1% + HPMC 0.5% w/v): 0.89 % w/v
THC concentrations in aqueous humor, iris-ciliary bodies / anterior segment ocular tissues ([8]; 1 hour post topical application): significant THC concentrations
Total THC concentration, Aqueous Humor [8, 13]: 62.1 ± 12.6 ng/100 μL
Total THC concentration, Cornea [8, 13]: 1191.7 ± 231.1 ng/50 mg Tissue
Total THC concentration, Iris-Cilliary Body [8, 13]: 51.44 ± 19.5 ng/50 mg Tissue
Total THC concentration, Sclera [8, 13]: 913.4 ± 432.9 ng/250 mg Tissue
Total THC concentration, Aqueous Humor [8, 14]: 69.4 ± 16.7 ng/100 μL
Total THC concentration, Cornea [8, 14]: 1677.1 ± 172.1 ng/50 mg Tissue
Total THC concentration, Iris-Cilliary Body [8, 14]: 65.8 ± 15.9 ng/50 mg Tissue
Total THC concentration, Sclera [8, 14]: 882.2 ± 185.8 ng/250 mg Tissue
Total THC concentration, Aqueous Humor [8, 15]: 38.3 ± 10.2 ng/100 μL
Total THC concentration, Cornea [8, 15]: 1142.3 ± 415.9 ng/50 mg Tissue
Total THC concentration, Iris-Cilliary Body [8, 15]: 57.9 ± 16.1 ng/50 mg Tissue
Total THC concentration, Sclera [8, 15]: 241.8 ± 106.6 ng/250 mg Tissue
Total THC concentration, Aqueous Humor [8, 16]: 61.3 ± 32.1 ng/100 μL
Total THC concentration, Cornea [8, 16]: 1634.5 ± 756.5 ng/50 mg Tissue
Total THC concentration, Iris-Cilliary Body [8, 16]: 86.03 ± 38.2 ng/50 mg Tissue
Total THC concentration, Retina-Choroid [8, 16]: 17.02 ± 8.01 ng/50 mg Tissue
Total THC concentration, Sclera [8, 16]: 1891.2 ± 771.5 ng/250 mg Tissue
Total THC concentration, Aqueous Humor [8, 17]: 29.1 ± 14.2 ng/100 μL
Total THC concentration, Cornea [8, 17]: 1043.4 ± 614.4 ng/50 mg Tissue
Total THC concentration, Iris-Cilliary Body [8, 17]: 104.2 ± 41.2 ng/50 mg Tissue
Total THC concentration, Retina-Choroid [8, 17]: 11.9 ± 4.9 ng/50 mg Tissue
Total THC concentration, Sclera [8, 17]: 812.6 ± 501.4 ng/250 mg Tissue
Drug loading (%) [9]: 112.21 ± 4.99%
CBN content of the sample after heating ([9]; 120° C. for 10 min): 0 µg
Drug remaining ([9]; 120° C. for 10 min): 1350.13 ± 387.10 µg
THC content of the sample after heating ([9]; 120° C. for 10 min): 80.26 ± 8.59 µg
Drug remaining (%) ([9]; 120° C. for 10 min, % of initial): (96.29 ± 3.89) %
CBN content of the sample, initial ([9]; before heating): 0 µg
Initial, μg (drug itself) ([9]; before heating): 1411.49 ± 459.10 µg
THC content of the sample, initial ([9]; before heating): 96.52 ± 3.72 µg
K [10]: 85.54 ± 3.74 ×10^−2 min^−1
T1/2 [10]: 8.11 ± 0.35 min
Blood levels after rectal administration [11]: significant blood levels
Assay (as a % of theoretical amount) ([12]; 1 Month, 25° C./60% RH): 110.6 ± 0.1%
Assay (as a % of theoretical amount) ([12]; 1 Month, 40° C./75% RH): 80.9 ± 3.9%
Assay (as a % of theoretical amount) ([12]; 3 Month, 25° C./60% RH): 108.3 ± 4.6%
Assay (as a % of theoretical amount) ([12]; Initial): 108.4 ± 0.2%
Stability in the hot-melt-extruded formulation ([12]; three month stability data): stable
